In the CheMixHub ionic liquid set:

Experiment: xn = mol fraction of the nth substance listed
Settings: for viscosity: 100 kPa

OC1OC[C@@H](O)[C@H](O)[C@H]1O (some centres undefined) + CCCCCCCCCCCCCCCC[N+](C)(C)C.[Br-] + O
viscosity [mPa·s]
Settings | 298.15 K | 308.15 K | 318.15 K
x2 = 7.19e-06, x1 = 0.001926 | 0.934 | 0.772 | 0.642
x2 = 7.19e-06, x1 = 0.002323 | 0.941 | 0.779 | 0.647
x2 = 7.19e-06, x1 = 0.002648 | 0.948 | 0.784 | 0.651
x2 = 7.2e-06, x1 = 0.0009003 | 0.914 | 0.756 | 0.629
x2 = 7.2e-06, x1 = 0.001314 | 0.922 | 0.763 | 0.634
x2 = 7.2e-06, x1 = 0.001634 | 0.928 | 0.768 | 0.638
x2 = 1.438e-05, x1 = 0.002366 | 0.948 | 0.784 | 0.651
x2 = 1.438e-05, x1 = 0.002756 | 0.957 | 0.791 | 0.656
x2 = 1.439e-05, x1 = 0.001528 | 0.931 | 0.77 | 0.639
x2 = 1.439e-05, x1 = 0.001964 | 0.94 | 0.777 | 0.645
x2 = 1.44e-05, x1 = 0.0009094 | 0.918 | 0.759 | 0.63
x2 = 1.44e-05, x1 = 0.001186 | 0.923 | 0.764 | 0.634
x2 = 2.157e-05, x1 = 0.002446 | 0.955 | 0.79 | 0.654
x2 = 2.157e-05, x1 = 0.002688 | 0.961 | 0.795 | 0.658
x2 = 2.158e-05, x1 = 0.00199 | 0.945 | 0.782 | 0.647
x2 = 2.159e-05, x1 = 0.001338 | 0.93 | 0.77 | 0.637
x2 = 2.159e-05, x1 = 0.001717 | 0.939 | 0.777 | 0.643
x2 = 2.16e-05, x1 = 0.0009887 | 0.923 | 0.763 | 0.632

O=S(=O)([N-]S(=O)(=O)C(F)(F)F)C(F)(F)F.[Li+] + CC[n+]1ccn(C)c1.O=S(=O)([O-])C(F)(F)F
electrical conductivity [S/m], 101 kPa
Settings | x1 = 0.007746 | x1 = 0.01537 | x2 = 0.9697 | x2 = 0.9746
288.15 K | 0.587 | 0.557 | – | 0.538
298.15 K | 0.844 | 0.823 | 0.778 | 0.785
333.15 K | 2.14 | 2.13 | 2.04 | 2.04

CCCCCCCCCCCCCC[P+](CCCCCC)(CCCCCC)CCCCCC.O=[N+]([O-])c1c[n-]cn1 + COCCOCCOCCOCCOC
viscosity [mPa·s]
Settings | 278.15 K | 283.15 K | 303.15 K
x2 = 0.189 | 1503 | 1036 | –
x2 = 0.404 | – | – | 107

COP(=O)([O-])OC.C[N+]1(CCO)CCCC1 + CCO
Settings | viscosity [mPa·s]
293.15 K, x1 = 0.1077 | 4.74
293.15 K, x1 = 0.2079 | 12.31
293.15 K, x1 = 0.3084 | 32
293.15 K, x1 = 0.4033 | 55.9
293.15 K, x1 = 0.5077 | 123
293.15 K, x1 = 0.7053 | 402
298.15 K, x1 = 0.7053 | 295
298.15 K, x1 = 0.8055 | 478
303.15 K, x1 = 0.0561 | 2.02
303.15 K, x1 = 0.2079 | 9.66
303.15 K, x1 = 0.3084 | 23.7
303.15 K, x1 = 0.5077 | 78.2
308.15 K, x1 = 0.0561 | 1.73
308.15 K, x1 = 0.1077 | 3.54
308.15 K, x1 = 0.1523 | 5.76
308.15 K, x1 = 0.3084 | 21.1
313.15 K, x1 = 0.9053 | 277
318.15 K, x1 = 0.2079 | 7.02
318.15 K, x1 = 0.2537 | 10.45
318.15 K, x1 = 0.4033 | 26.5
318.15 K, x1 = 0.5077 | 44.7
318.15 K, x1 = 1 | 273
323.15 K, x1 = 0.5077 | 38.1
323.15 K, x1 = 0.6042 | 60
328.15 K, x1 = 0.2079 | 5.83
328.15 K, x1 = 0.3084 | 12.98
328.15 K, x1 = 0.6042 | 50.4
333.15 K, x1 = 0.4033 | 17.9
333.15 K, x1 = 0.7053 | 54.1
338.15 K, x1 = 0.4033 | 16.24
338.15 K, x1 = 0.5077 | 23.8
338.15 K, x1 = 0.6042 | 35.9
338.15 K, x1 = 0.8055 | 60.9

CCCCCCCCCC[n+]1ccn(C)c1.[Cl-] + OC[C@H]1O[C@@](CO)(O[C@H]2O[C@H](CO)[C@@H](O)[C@H](O)[C@H]2O)[C@@H](O)[C@@H]1O + O
298.15 K, 101.3 kPa
Settings | electrical conductivity [S/m]
x2 = 0, x1 = 6.46e-06 | 0.00385
x2 = 0, x1 = 9.55e-06 | 0.00548
x2 = 0, x1 = 1.262e-05 | 0.00708
x2 = 0, x1 = 1.582e-05 | 0.00872
x2 = 0, x1 = 1.894e-05 | 0.0103
x2 = 0, x1 = 2.2e-05 | 0.0118
x2 = 0, x1 = 2.507e-05 | 0.01334
x2 = 0, x1 = 2.8e-05 | 0.0148
x2 = 0, x1 = 3.092e-05 | 0.0162
x2 = 0, x1 = 3.384e-05 | 0.0176
x2 = 0.003591, x1 = 7.14e-06 | 0.00361
x2 = 0.003591, x1 = 1.162e-05 | 0.00554
x2 = 0.003591, x1 = 1.987e-05 | 0.00901
x2 = 0.003591, x1 = 2.367e-05 | 0.0106
x2 = 0.003591, x1 = 2.764e-05 | 0.01214
x2 = 0.003591, x1 = 3.131e-05 | 0.0136
x2 = 0.003591, x1 = 3.559e-05 | 0.01531
x2 = 0.003591, x1 = 3.942e-05 | 0.0168
x2 = 0.003591, x1 = 4.357e-05 | 0.0184
x2 = 0.007156, x1 = 4.94e-06 | 0.00234
x2 = 0.007156, x1 = 9.37e-06 | 0.0041
x2 = 0.007156, x1 = 1.394e-05 | 0.00589
x2 = 0.007156, x1 = 1.816e-05 | 0.00752
x2 = 0.007156, x1 = 2.215e-05 | 0.00905
x2 = 0.007156, x1 = 2.62e-05 | 0.0106
x2 = 0.007156, x1 = 3.004e-05 | 0.01205
x2 = 0.007156, x1 = 3.378e-05 | 0.0135
x2 = 0.007156, x1 = 3.734e-05 | 0.0148
x2 = 0.007156, x1 = 4.078e-05 | 0.01606
x2 = 0.0107, x1 = 8.82e-06 | 0.00336
x2 = 0.0107, x1 = 1.279e-05 | 0.00469
x2 = 0.0107, x1 = 1.666e-05 | 0.00596
x2 = 0.0107, x1 = 2.02e-05 | 0.00712
x2 = 0.0107, x1 = 2.387e-05 | 0.00828
x2 = 0.0107, x1 = 2.723e-05 | 0.00939
x2 = 0.0107, x1 = 3.056e-05 | 0.0105
x2 = 0.0107, x1 = 3.344e-05 | 0.01139
x2 = 0.0107, x1 = 3.674e-05 | 0.0124
x2 = 0.0107, x1 = 3.975e-05 | 0.0134
x2 = 0.01421, x1 = 8.46e-06 | 0.00279
x2 = 0.01421, x1 = 1.229e-05 | 0.00388
x2 = 0.01421, x1 = 1.596e-05 | 0.00491
x2 = 0.01421, x1 = 1.986e-05 | 0.00599
x2 = 0.01421, x1 = 2.304e-05 | 0.00688
x2 = 0.01421, x1 = 2.641e-05 | 0.0078
x2 = 0.01421, x1 = 2.985e-05 | 0.00874
x2 = 0.01421, x1 = 3.276e-05 | 0.00953
x2 = 0.01421, x1 = 3.602e-05 | 0.01042
x2 = 0.01421, x1 = 3.892e-05 | 0.01121
x2 = 0.0177, x1 = 1.052e-05 | 0.00291
x2 = 0.0177, x1 = 1.539e-05 | 0.00407
x2 = 0.0177, x1 = 2e-05 | 0.00515
x2 = 0.0177, x1 = 2.419e-05 | 0.00614
x2 = 0.0177, x1 = 2.851e-05 | 0.00714
x2 = 0.0177, x1 = 3.269e-05 | 0.0081
x2 = 0.0177, x1 = 3.635e-05 | 0.00895
x2 = 0.0177, x1 = 4.032e-05 | 0.00985
x2 = 0.0177, x1 = 4.414e-05 | 0.0107
